Measured values reported in patent US9884814B2, “Acylguanidines for treating osteoarthritis” (Merck Patent GmbH, priority 2013, dated 2018).

System: CAR-induced swelling, rat knee joint
Conditions: intra-articular, 30 minutes before CAR, TAC 10 μg/joint
Description: In order to induce an inflammation reaction, a carrageenan solution (CAR, 1%, 50 μl) was injected intra-articularly on one side into a rat knee joint. The uninjected side was used for control purposes. Six animals per group were used.
The specific cathepsin D inhibitors according to the invention were administered out intra-articularly 30 minutes before the CAR.

## C[C@]12C=CC(=O)C=C1CC[C@H]1[C@@H]3C[C@@H](O)[C@](O)(C(=O)CO)[C@@]3(C)C[C@H](O)[C@@]12F [TAC, Triamcinolone]
  reduction of CAR-induced swelling: capable of reducing the CAR-induced swelling
